System: intracellular proteome of ENR+CD and ENR organoids
Assay: LC-MS/MS TMT proteomics of ENR+CD versus ENR organoids
Type: cell-based, C57BL/6 mice
Conditions: for change: up = enriched in ENR+CD, down = enriched in ENR, FDR<0.05 and log fold change cut-off
From the text: Because PCs are highly secretory, protein-rich cells, Applicants sought to assess the total intracellular proteome between conditions through liquid chromatography mass spectrometry (LC-MS/MS)-based proteomics. Applicants quantified relative protein abundance across eight samples using isobaric mass tag labeling from four ENR and four ENR+CD samples (M1-1 through M2-2, first digit denotes biological donor, second digit denotes technical replicate) (FIG. 3A). Samples were processed and analyzed in a single 10-plex by LC-MS/MS (FIG. 9A).
To affirm the reproducibility of the associated proteins in the ENR+CD-enriched proteome, Applicants performed relative quantification within differentiation sets.
Mass spectrometry proteomics sample preparation, sequencing, and quantification. Organoid cell pellets were isolated from Matrigel with mechanical dissociation and washed (cold PBS 5X) to remove residual extracellular protein. Proteins were extracted from cell pellets with 8 M urea (Sigma), reduced with 5 mM DTT (Thermo Fisher Pierce) for 45 minutes, alkylated with 10 mM IAA (Sigma) for 45 minutes in the dark, and double digested with both Lysyl Endopeptidase “LysC” (Wako) and trypsin (Promega) overnight at RT. A small aliquot of cellular lysate was removed from each sample for protein quantification via the Pierce™ BCA Protein Assay Kit (Pierce). After proteolytic digestion, the samples were quenched using formic acid to a final concentration of 1.0% and subsequently desalted on 10 mg OASIS HLB solid phase columns (Waters).
The peptides were labeled with TMT-10 isobaric mass tag reagent according to manufacturer's instructions (ThermoFisher Scientific). The peptides were labeled at a 1:8 ratio of peptide to TMT reagent, followed by 1-hour incubation at RT with bench top shaking at 850 rpm. After incubation, a […] of labeled tryptic peptide was removed from each labeled condition, desalted with C18 stage tips, and analyzed via LC-MS/MS using a Thermo Fisher Q Exactive Plus Hybrid Mass Spectrometer (QE-Plus) coupled to a Thermo Fisher EASY-nLC 1000 liquid chromatograph to ensure isobaric label incorporation >95%. An additional 1.0 μg of labeled tryptic peptide was removed from each channel, mixed together, desalted on a C18 stage tip, and analyzed via LC-MS to ensure equal relative protein loads. During these quality control steps, the labeled peptides were stored, unquenched at −80° C.

[1] = protein abundance, ENR+CD versus ENR organoids, aggregate of the four sample pairs
[2] = protein abundance, ENR+CD versus ENR organoids, replicate M1-1, log2 ratio
[3] = protein abundance, ENR+CD versus ENR organoids, replicate M1-2, log2 ratio
[4] = protein abundance, ENR+CD versus ENR organoids, replicate M2-1, log2 ratio
[5] = protein abundance, ENR+CD versus ENR organoids, replicate M2-2, log2 ratio
[6] = ENR+CD versus ENR organoids, sample pairs in aggregate (n=4, 2 technical replicates from two biological donors)
[7] = protein abundance ratio ENR+CD versus ENR organoids, sample pair M1-1, LC-MS/MS TMT proteomics
[8] = protein abundance ratio ENR+CD versus ENR organoids, sample pair M1-2, LC-MS/MS TMT proteomics
[9] = protein abundance ratio ENR+CD versus ENR organoids, sample pair M2-1, LC-MS/MS TMT proteomics
[10] = protein abundance ratio ENR+CD versus ENR organoids, sample pair M2-2, LC-MS/MS TMT proteomics

Substance: B9EJA2
- Average logFC [1]: −1.156
- M1-1 Log2 Median Normalized [2]: −1.439
- M1-2 Log2 Median Normalized [3]: −1.031
- M2-1 Log2 Median Normalized [4]: −0.9535
- M2-2 Log2 Median Normalized [5]: −1.2
- change: down

Substance: O70472
- Average logFC [1]: 1.172
- M1-1 Log2 Median Normalized [2]: 1.419
- M1-2 Log2 Median Normalized [3]: 0.87
- M2-1 Log2 Median Normalized [4]: 1.3875
- M2-2 Log2 Median Normalized [5]: 1.011
- change: up

Substance: O70514
- Average logFC [1]: −1.202
- M1-1 Log2 Median Normalized [2]: −1.413
- M1-2 Log2 Median Normalized [3]: −1.091
- M2-1 Log2 Median Normalized [4]: −1.0895
- M2-2 Log2 Median Normalized [5]: −1.216
- change: down

Substance: P02798
- Average logFC [1]: −2.904
- M1-1 Log2 Median Normalized [2]: −2.904
- M1-2 Log2 Median Normalized [3]: −2.907
- M2-1 Log2 Median Normalized [4]: −2.2505
- M2-2 Log2 Median Normalized [5]: −3.047
- change: down

Substance: P02802
- Average logFC [1]: −1.725
- M1-1 Log2 Median Normalized [2]: −2.19
- M1-2 Log2 Median Normalized [3]: −2.322
- M2-1 Log2 Median Normalized [4]: −1.3715
- M2-2 Log2 Median Normalized [5]: −1.016
- change: down

Substance: P07309
- Average logFC [1]: 1.249
- M1-1 Log2 Median Normalized [2]: 1.309
- M1-2 Log2 Median Normalized [3]: 0.951
- M2-1 Log2 Median Normalized [4]: 1.2255
- M2-2 Log2 Median Normalized [5]: 1.511
- change: up

Substance: P07310
- Average logFC [1]: −2.279
- M1-1 Log2 Median Normalized [2]: −1.418
- M1-2 Log2 Median Normalized [3]: −3.14
- M2-1 Log2 Median Normalized [4]: −2.0165
- M2-2 Log2 Median Normalized [5]: −2.541
- change: down

Substance: P09405
- Average logFC [1]: −1.217
- M1-1 Log2 Median Normalized [2]: −1.377
- M1-2 Log2 Median Normalized [3]: −0.807
- M2-1 Log2 Median Normalized [4]: −1.0695
- M2-2 Log2 Median Normalized [5]: −1.615
- change: down

Substance: P18894
- Average logFC [1]: −1.376
- M1-1 Log2 Median Normalized [2]: −1.222
- M1-2 Log2 Median Normalized [3]: −1.706
- M2-1 Log2 Median Normalized [4]: −1.8305
- M2-2 Log2 Median Normalized [5]: −0.745
- change: down

Substance: P47968
- Average logFC [1]: −1.292
- M1-1 Log2 Median Normalized [2]: −0.958
- M1-2 Log2 Median Normalized [3]: −1.223
- M2-1 Log2 Median Normalized [4]: −1.2935
- M2-2 Log2 Median Normalized [5]: −1.827
- change: down

Substance: P56382 (MVAYWRQAGLSYIRFSQICAKAVRDALKTEFKANAEKTSGSSIKIVKVSKKE; full-length; UniProt P56382 1-52, looked up)
- Average logFC [1]: −2.387
- M1-1 Log2 Median Normalized [2]: −1.051
- M1-2 Log2 Median Normalized [3]: −3.179
- M2-1 Log2 Median Normalized [4]: −1.3955
- M2-2 Log2 Median Normalized [5]: −3.924
- change: down

Substance: P56716
- Average logFC [1]: 1.303
- M1-1 Log2 Median Normalized [2]: 0.494
- M1-2 Log2 Median Normalized [3]: 1.733
- M2-1 Log2 Median Normalized [4]: 1.3015
- M2-2 Log2 Median Normalized [5]: 1.329
- change: up

Substance: P84102 (MTRGNQRELARQKNMKKQSDSVKGKRRDDGLSAAARKQRDSEIMQQKQKKANEKKEEPK; full-length; UniProt P84102 1-59, looked up)
- Average logFC [1]: 1.286
- M1-1 Log2 Median Normalized [2]: 1.517
- M1-2 Log2 Median Normalized [3]: 0.63
- M2-1 Log2 Median Normalized [4]: 2.2205
- M2-2 Log2 Median Normalized [5]: 0.775
- change: up

Substance: P97328
- Average logFC [1]: −1.236
- M1-1 Log2 Median Normalized [2]: −1.151
- M1-2 Log2 Median Normalized [3]: −2.263
- M2-1 Log2 Median Normalized [4]: −1.4115
- M2-2 Log2 Median Normalized [5]: −0.12
- change: down

Substance: P97479
- Average logFC [1]: −1.162
- M1-1 Log2 Median Normalized [2]: −1.135
- M1-2 Log2 Median Normalized [3]: −1.101
- M2-1 Log2 Median Normalized [4]: −1.2195
- M2-2 Log2 Median Normalized [5]: −1.191
- change: down

Substance: Q4ACU6
- Average logFC [6]: −1.637
- M1-1 Log2 Median Normalized [7]: −1.525
- M1-2 Log2 Median Normalized [8]: −1.512
- M2-1 Log2 Median Normalized [9]: −1.6745
- M2-2 Log2 Median Normalized [10]: −1.835
- change: down

Substance: Q6ZWR6
- Average logFC [6]: 1.168
- M1-1 Log2 Median Normalized [7]: 1.167
- M1-2 Log2 Median Normalized [8]: 0.703
- M2-1 Log2 Median Normalized [9]: 1.1985
- M2-2 Log2 Median Normalized [10]: 1.566
- change: up

Substance: Q7JJ13
- Average logFC [6]: −1.145
- M1-1 Log2 Median Normalized [7]: −1.243
- M1-2 Log2 Median Normalized [8]: −0.748
- M2-1 Log2 Median Normalized [9]: −0.9235
- M2-2 Log2 Median Normalized [10]: −1.666
- change: down

Substance: Q8BHB9
- Average logFC [6]: −1.288
- M1-1 Log2 Median Normalized [7]: −1.576
- M1-2 Log2 Median Normalized [8]: −1.245
- M2-1 Log2 Median Normalized [9]: −1.3195
- M2-2 Log2 Median Normalized [10]: −1.01
- change: down

Substance: Q8BRB7
- Average logFC [6]: −1.345
- M1-1 Log2 Median Normalized [7]: −0.966
- M1-2 Log2 Median Normalized [8]: −1.077
- M2-1 Log2 Median Normalized [9]: −1.3755
- M2-2 Log2 Median Normalized [10]: −1.962
- change: down

Substance: Q8R0T2
- Average logFC [6]: −1.493
- M1-1 Log2 Median Normalized [7]: −1.662
- M1-2 Log2 Median Normalized [8]: −0.647
- M2-1 Log2 Median Normalized [9]: −0.8365
- M2-2 Log2 Median Normalized [10]: −2.825
- change: down

Substance: Q8VHB5
- Average logFC [6]: −1.632
- M1-1 Log2 Median Normalized [7]: −1.611
- M1-2 Log2 Median Normalized [8]: −1.401
- M2-1 Log2 Median Normalized [9]: −1.7625
- M2-2 Log2 Median Normalized [10]: −1.754
- change: down

Substance: Q9CPS7
- Average logFC [6]: −1.227
- M1-1 Log2 Median Normalized [7]: −1.383
- M1-2 Log2 Median Normalized [8]: −1.226
- M2-1 Log2 Median Normalized [9]: −0.9215
- M2-2 Log2 Median Normalized [10]: −1.327
- change: down

Substance: Q9D937
- Average logFC [6]: −1.943
- M1-1 Log2 Median Normalized [7]: −2.074
- M1-2 Log2 Median Normalized [8]: −1.942
- M2-1 Log2 Median Normalized [9]: −1.0675
- M2-2 Log2 Median Normalized [10]: −2.286
- change: down

Substance: Q9ET22
- Average logFC [6]: 1.277
- M1-1 Log2 Median Normalized [7]: 1.451
- M1-2 Log2 Median Normalized [8]: 1.159
- M2-1 Log2 Median Normalized [9]: 1.3455
- M2-2 Log2 Median Normalized [10]: 1.153
- change: up

Substance: Q9JMC3
- Average logFC [6]: 1.386
- M1-1 Log2 Median Normalized [7]: 1.758
- M1-2 Log2 Median Normalized [8]: 0.805
- M2-1 Log2 Median Normalized [9]: 1.3105
- M2-2 Log2 Median Normalized [10]: 1.67
- change: up

Substance: Q9QWG7
- Average logFC [6]: −1.142
- M1-1 Log2 Median Normalized [7]: −1.032
- M1-2 Log2 Median Normalized [8]: −1.575
- M2-1 Log2 Median Normalized [9]: −1.8475
- M2-2 Log2 Median Normalized [10]: −0.115
- change: down

Substance: Q9R0M0
- Average logFC [6]: 1.229
- M1-1 Log2 Median Normalized [7]: 1.297
- M1-2 Log2 Median Normalized [8]: 0.675
- M2-1 Log2 Median Normalized [9]: 1.2135
- M2-2 Log2 Median Normalized [10]: 1.732
- change: up

Substance: Q52KR3
- Average logFC [6]: −1.393
- M1-1 Log2 Median Normalized [7]: −2.118
- M1-2 Log2 Median Normalized [8]: −0.268
- M2-1 Log2 Median Normalized [9]: −1.3905
- M2-2 Log2 Median Normalized [10]: −1.67
- change: down

Substance: Q80SU7
- Average logFC [6]: −1.224
- M1-1 Log2 Median Normalized [7]: −1.279
- M1-2 Log2 Median Normalized [8]: −0.758
- M2-1 Log2 Median Normalized [9]: −1.2235
- M2-2 Log2 Median Normalized [10]: −1.338
- change: down

Substance: Q80TR4
- Average logFC [6]: 1.235
- M1-1 Log2 Median Normalized [7]: 1.316
- M1-2 Log2 Median Normalized [8]: 1.587
- M2-1 Log2 Median Normalized [9]: 1.2175
- M2-2 Log2 Median Normalized [10]: 0.818
- change: up

Substance: Q91VE6
- Average logFC [6]: −1.411
- M1-1 Log2 Median Normalized [7]: −1.492
- M1-2 Log2 Median Normalized [8]: −1.242
- M2-1 Log2 Median Normalized [9]: −1.0275
- M2-2 Log2 Median Normalized [10]: −1.884
- change: down

Substance: Q91WA1
- Average logFC [6]: −1.673
- M1-1 Log2 Median Normalized [7]: −1.929
- M1-2 Log2 Median Normalized [8]: −0.883
- M2-1 Log2 Median Normalized [9]: −1.5765
- M2-2 Log2 Median Normalized [10]: −2.303
- change: down

Substance: Q03172
- Average logFC [1]: 1.206
- M1-1 Log2 Median Normalized [2]: 0.832
- M1-2 Log2 Median Normalized [3]: 1.656
- M2-1 Log2 Median Normalized [4]: 1.2325
- M2-2 Log2 Median Normalized [5]: 1.102
- change: up
